This is an account of results in patent US20240043416A1, “SALT AND CRYSTAL FORM OF HA INHIBITOR COMPOUND” (SICHUAN HAISCO PHARMACEUTICAL CO., LTD., priority 2021, published 2024).

The structures appear in SMILES notation. Counter-ions that a name gives are not always drawn.

Series [1] is described as follows: Characterization of salt form of compound A (properties of various salts, Table 8). The format is physicochemical. The following applies: determined by the height of the strongest peak in XRPD.
The next series in a line: in vivo. The settings on record: male, SD, rat. The method, then:
Test objective: by giving test compounds to SD rats via single-dose intravenous and intragastric administration and measuring the concentrations of the test compounds in plasma of rats, the pharmacokinetic characteristics and bioavailability of the test compounds in rats were evaluated.
Test animal: male SD rats, about 220 g, 6-8 weeks old, 6 rats/compound, purchased from Chengdu Ddossy Experimental Animals Co., Ltd.
Test method: on the day of the test, 6 SD rats were randomly grouped according to their body weight; the animals were fasted with water available for 12 to 14 h one day before the administration, and were fed 4 h after the administration; and the administration was performed according to Table 10.
Before and after the administration, 0.1 mL of blood samples were drawn from the orbits of the animals under isoflurane anaesthesia, and placed in an EDTAK2 centrifuge tube. Centrifugation was performed at 5000 rpm at 4° C. for 10 min, and plasma was collected.
Time points for sample collection in G1 and G2 groups comprise 0, 5 min, 15 min, 30 min, 1 h, 2 h, 4 h, 6 h, 8 h and 24 h.
Before analysis and detection, all samples were stored at −80° C.
30 μL of each of plasma samples, standard curve samples and quality control samples was taken, and 200 μL of acetonitrile solution containing an internal standard was added. The resulting mixture was homogeneously mixed by vortex and centrifuged at 4° C. at 12000 rpm for 10 min. 170 μL of the supernatant was taken and placed to a 96-well plate, and LC-MS/MS analysis was performed, wherein the sample size was 0.2 μL.
The main pharmacokinetic parameters were analysed by a non-compartmental model using WinNonlin 8.0 software.

Consider `C1=Cc2cccc(OC[C@H]3CNCCO3)c2C1.O=S(=O)(O)c1ccccc1` [Benzenesulfonate], for which, in series [1], the Crystallinity entry was “Relatively”.
With `Cc1nnn([C@@H](c2ccccc2)C2CCN(C(=O)c3cc(-c4nc5cc(NC(=O)[C@@H]6C[C@@H]6F)ccc5o4)ccn3)CC2)n1` [Compound A, (1S,2S)-2-fluoro-N-(2-(2-(4-((R)-(5-methyl-2H-tetrazol-2-yl)(phenyl)methyl)piperidine-1-carbonyl)pyridin-4-yl)benzo[d]oxazol-5-yl)cyclopropane-1-carboxamide], the bioavailability – broadly, dose-corrected exposure relative to a reference, in per cent – in the series “in vivo” was 26.1 ± 6.2%. In the series “in vivo” (iv, 2 mg/kg), the AUC (as a rule, the area under the concentration-time curve, a measure of exposure) is 2010 ± 396 ng·h/mL; the peak level (Cmax) was 1460 ± 134 ng/mL; the half-life (in general, how long it takes for the measured level to halve) was 0.897 ± 0.013 h. Moreover, in “in vivo” (po, 10 mg/kg), the AUC was determined as 2610 ± 620 ng·h/mL, the concentration peaked (Cmax) at 715 ± 127 ng/mL, the Tmax (commonly the time from dosing to the highest level) is 1.67 ± 0.58 h and the half-life was 1.04 ± 0.099 h.
As for `O=S(=O)(O)c1ccc2ccccc2c1` [Example 2-naphthalenesulfonate, 2-naphthalenesulfonate], the Crystallinity result in series [1] is reported as “High”.
For `Br` [Hydrobromide], the Crystallinity entry in series [1] was “High”.
